Columns and labels:
EDL muscle = test: Isometric force production of isolated EDL muscle after chronic exercise; format: in vivo, mouse; conditions: stimulation frequencies greater than 80 Hz
Description: Intact muscle preparation: Immediately following a forced exercise session, each mouse was sacrificed by carbon dioxide inhalation and cervical dislocation. Blood was removed by intracardiac aspiration, spun down, and plasma was eluted and frozen in liquid nitrogen. 4-0 silk sutures were tied to the proximal and distal tendons of intact EDL and soleus muscles and the muscles were dissected free and placed in a modified Ringer's solution (140 mM NaCl, 5 mM KCl, 2.0 mM CaCl2, 2 mM MgCl2, 10 mM HEPES, 10 mM glucose, pH 7.4) bubbled with 100% O2. […] After perfusion with 35C Ringer's and equilibration for 10 minutes at a resting tension of 1 cN and a brief potentiation protocol, force-frequency relationships were measured, with 60 second delays between 800 ms stimulations at 40-150 Hz. […] Following stimulation, muscle length was determined at resting tension, and muscle dry weight was recorded.
Age and sex-matched WT mice were randomized to receive osmotic pumps containing either S107 or vehicle. […] Exercise capacity was assessed once a week by a level treadmill run to exhaustion during the nocturnal cycle of the mouse. […] Isometric force production was measured in EDL muscles in a tissue bath during field stimulation.

FDB muscle fibers = test: Confocal calcium imaging of isolated FDB muscle fibers during fatigue protocol; format: in vivo, mouse; conditions: FDB fibers from treated, chronically exercised mice
Description: Confocal microscopy: Single flexor digitorum brevis (FDB) fibers were enzymatically dissociated by standard methods (Reiken, Lacampagne et al. 2003). Briefly, the muscle was dissected from the paw, placed in a modified Ringer's solution, and stripped of all fascia. Type 1 collagenase-(2 mg/ml, Sigma) in Ringer's solution was prepared fresh, and the muscle was digested for 2 hours at 37° C. in a incubator shaking at 125 rpm. The muscle was placed in fresh Ringer's and gently triturated. Single fibers were collected and allowed to attach to glass coverslips coated in laminin (Sigma L-2020). The cells were loaded with 2 μM fluo-4-AM ester (Invitrogen) for 20 minutes, placed on the Zeiss Live 5 microscope stage and superfused for 15 minutes with Ringer's. The fibers were paced at 1 Hz for 10 minutes prior to imaging baseline fiber properties. Linescan images were continuously acquired at 1 ms scan rate during a tetanic sequence consisting of 300 ms stimulation at 100 Hz with a 2 Hz train rate. Images were analyzed in ImageJ, and an F/F0 ratio was calculated for each fiber.
Reduced fatiguability in calstabin1 rebound FDB muscle fibers: Flexor digitorum brevis (FDB) muscle fibers were enzymatically dissociated from mice following the chronic exercise protocol and loaded with the calcium indicator fluo-4. […] The kinetics of Ca^2+ release and reuptake during single twitches at 1 Hz were assessed.

RyR1 = target: T1, RyR1 (Mus musculus, UniProt E9PZQ0); test: Analysis of ryanodine receptor complex from EDL after chronic exercise (immunoprecipitation, immunoblot); format: in vivo; conditions: chronic exercise protocol
T1 construct: RyR1 was immunoprecipitated from soleus muscle homogenates of mice following 21 days of exercise; from tissue; host or cells: mouse hind-limb skeletal muscle (soleus, EDL; SR microsomes for bilayer recording)
T1 sequence (E9PZQ0 whole entry): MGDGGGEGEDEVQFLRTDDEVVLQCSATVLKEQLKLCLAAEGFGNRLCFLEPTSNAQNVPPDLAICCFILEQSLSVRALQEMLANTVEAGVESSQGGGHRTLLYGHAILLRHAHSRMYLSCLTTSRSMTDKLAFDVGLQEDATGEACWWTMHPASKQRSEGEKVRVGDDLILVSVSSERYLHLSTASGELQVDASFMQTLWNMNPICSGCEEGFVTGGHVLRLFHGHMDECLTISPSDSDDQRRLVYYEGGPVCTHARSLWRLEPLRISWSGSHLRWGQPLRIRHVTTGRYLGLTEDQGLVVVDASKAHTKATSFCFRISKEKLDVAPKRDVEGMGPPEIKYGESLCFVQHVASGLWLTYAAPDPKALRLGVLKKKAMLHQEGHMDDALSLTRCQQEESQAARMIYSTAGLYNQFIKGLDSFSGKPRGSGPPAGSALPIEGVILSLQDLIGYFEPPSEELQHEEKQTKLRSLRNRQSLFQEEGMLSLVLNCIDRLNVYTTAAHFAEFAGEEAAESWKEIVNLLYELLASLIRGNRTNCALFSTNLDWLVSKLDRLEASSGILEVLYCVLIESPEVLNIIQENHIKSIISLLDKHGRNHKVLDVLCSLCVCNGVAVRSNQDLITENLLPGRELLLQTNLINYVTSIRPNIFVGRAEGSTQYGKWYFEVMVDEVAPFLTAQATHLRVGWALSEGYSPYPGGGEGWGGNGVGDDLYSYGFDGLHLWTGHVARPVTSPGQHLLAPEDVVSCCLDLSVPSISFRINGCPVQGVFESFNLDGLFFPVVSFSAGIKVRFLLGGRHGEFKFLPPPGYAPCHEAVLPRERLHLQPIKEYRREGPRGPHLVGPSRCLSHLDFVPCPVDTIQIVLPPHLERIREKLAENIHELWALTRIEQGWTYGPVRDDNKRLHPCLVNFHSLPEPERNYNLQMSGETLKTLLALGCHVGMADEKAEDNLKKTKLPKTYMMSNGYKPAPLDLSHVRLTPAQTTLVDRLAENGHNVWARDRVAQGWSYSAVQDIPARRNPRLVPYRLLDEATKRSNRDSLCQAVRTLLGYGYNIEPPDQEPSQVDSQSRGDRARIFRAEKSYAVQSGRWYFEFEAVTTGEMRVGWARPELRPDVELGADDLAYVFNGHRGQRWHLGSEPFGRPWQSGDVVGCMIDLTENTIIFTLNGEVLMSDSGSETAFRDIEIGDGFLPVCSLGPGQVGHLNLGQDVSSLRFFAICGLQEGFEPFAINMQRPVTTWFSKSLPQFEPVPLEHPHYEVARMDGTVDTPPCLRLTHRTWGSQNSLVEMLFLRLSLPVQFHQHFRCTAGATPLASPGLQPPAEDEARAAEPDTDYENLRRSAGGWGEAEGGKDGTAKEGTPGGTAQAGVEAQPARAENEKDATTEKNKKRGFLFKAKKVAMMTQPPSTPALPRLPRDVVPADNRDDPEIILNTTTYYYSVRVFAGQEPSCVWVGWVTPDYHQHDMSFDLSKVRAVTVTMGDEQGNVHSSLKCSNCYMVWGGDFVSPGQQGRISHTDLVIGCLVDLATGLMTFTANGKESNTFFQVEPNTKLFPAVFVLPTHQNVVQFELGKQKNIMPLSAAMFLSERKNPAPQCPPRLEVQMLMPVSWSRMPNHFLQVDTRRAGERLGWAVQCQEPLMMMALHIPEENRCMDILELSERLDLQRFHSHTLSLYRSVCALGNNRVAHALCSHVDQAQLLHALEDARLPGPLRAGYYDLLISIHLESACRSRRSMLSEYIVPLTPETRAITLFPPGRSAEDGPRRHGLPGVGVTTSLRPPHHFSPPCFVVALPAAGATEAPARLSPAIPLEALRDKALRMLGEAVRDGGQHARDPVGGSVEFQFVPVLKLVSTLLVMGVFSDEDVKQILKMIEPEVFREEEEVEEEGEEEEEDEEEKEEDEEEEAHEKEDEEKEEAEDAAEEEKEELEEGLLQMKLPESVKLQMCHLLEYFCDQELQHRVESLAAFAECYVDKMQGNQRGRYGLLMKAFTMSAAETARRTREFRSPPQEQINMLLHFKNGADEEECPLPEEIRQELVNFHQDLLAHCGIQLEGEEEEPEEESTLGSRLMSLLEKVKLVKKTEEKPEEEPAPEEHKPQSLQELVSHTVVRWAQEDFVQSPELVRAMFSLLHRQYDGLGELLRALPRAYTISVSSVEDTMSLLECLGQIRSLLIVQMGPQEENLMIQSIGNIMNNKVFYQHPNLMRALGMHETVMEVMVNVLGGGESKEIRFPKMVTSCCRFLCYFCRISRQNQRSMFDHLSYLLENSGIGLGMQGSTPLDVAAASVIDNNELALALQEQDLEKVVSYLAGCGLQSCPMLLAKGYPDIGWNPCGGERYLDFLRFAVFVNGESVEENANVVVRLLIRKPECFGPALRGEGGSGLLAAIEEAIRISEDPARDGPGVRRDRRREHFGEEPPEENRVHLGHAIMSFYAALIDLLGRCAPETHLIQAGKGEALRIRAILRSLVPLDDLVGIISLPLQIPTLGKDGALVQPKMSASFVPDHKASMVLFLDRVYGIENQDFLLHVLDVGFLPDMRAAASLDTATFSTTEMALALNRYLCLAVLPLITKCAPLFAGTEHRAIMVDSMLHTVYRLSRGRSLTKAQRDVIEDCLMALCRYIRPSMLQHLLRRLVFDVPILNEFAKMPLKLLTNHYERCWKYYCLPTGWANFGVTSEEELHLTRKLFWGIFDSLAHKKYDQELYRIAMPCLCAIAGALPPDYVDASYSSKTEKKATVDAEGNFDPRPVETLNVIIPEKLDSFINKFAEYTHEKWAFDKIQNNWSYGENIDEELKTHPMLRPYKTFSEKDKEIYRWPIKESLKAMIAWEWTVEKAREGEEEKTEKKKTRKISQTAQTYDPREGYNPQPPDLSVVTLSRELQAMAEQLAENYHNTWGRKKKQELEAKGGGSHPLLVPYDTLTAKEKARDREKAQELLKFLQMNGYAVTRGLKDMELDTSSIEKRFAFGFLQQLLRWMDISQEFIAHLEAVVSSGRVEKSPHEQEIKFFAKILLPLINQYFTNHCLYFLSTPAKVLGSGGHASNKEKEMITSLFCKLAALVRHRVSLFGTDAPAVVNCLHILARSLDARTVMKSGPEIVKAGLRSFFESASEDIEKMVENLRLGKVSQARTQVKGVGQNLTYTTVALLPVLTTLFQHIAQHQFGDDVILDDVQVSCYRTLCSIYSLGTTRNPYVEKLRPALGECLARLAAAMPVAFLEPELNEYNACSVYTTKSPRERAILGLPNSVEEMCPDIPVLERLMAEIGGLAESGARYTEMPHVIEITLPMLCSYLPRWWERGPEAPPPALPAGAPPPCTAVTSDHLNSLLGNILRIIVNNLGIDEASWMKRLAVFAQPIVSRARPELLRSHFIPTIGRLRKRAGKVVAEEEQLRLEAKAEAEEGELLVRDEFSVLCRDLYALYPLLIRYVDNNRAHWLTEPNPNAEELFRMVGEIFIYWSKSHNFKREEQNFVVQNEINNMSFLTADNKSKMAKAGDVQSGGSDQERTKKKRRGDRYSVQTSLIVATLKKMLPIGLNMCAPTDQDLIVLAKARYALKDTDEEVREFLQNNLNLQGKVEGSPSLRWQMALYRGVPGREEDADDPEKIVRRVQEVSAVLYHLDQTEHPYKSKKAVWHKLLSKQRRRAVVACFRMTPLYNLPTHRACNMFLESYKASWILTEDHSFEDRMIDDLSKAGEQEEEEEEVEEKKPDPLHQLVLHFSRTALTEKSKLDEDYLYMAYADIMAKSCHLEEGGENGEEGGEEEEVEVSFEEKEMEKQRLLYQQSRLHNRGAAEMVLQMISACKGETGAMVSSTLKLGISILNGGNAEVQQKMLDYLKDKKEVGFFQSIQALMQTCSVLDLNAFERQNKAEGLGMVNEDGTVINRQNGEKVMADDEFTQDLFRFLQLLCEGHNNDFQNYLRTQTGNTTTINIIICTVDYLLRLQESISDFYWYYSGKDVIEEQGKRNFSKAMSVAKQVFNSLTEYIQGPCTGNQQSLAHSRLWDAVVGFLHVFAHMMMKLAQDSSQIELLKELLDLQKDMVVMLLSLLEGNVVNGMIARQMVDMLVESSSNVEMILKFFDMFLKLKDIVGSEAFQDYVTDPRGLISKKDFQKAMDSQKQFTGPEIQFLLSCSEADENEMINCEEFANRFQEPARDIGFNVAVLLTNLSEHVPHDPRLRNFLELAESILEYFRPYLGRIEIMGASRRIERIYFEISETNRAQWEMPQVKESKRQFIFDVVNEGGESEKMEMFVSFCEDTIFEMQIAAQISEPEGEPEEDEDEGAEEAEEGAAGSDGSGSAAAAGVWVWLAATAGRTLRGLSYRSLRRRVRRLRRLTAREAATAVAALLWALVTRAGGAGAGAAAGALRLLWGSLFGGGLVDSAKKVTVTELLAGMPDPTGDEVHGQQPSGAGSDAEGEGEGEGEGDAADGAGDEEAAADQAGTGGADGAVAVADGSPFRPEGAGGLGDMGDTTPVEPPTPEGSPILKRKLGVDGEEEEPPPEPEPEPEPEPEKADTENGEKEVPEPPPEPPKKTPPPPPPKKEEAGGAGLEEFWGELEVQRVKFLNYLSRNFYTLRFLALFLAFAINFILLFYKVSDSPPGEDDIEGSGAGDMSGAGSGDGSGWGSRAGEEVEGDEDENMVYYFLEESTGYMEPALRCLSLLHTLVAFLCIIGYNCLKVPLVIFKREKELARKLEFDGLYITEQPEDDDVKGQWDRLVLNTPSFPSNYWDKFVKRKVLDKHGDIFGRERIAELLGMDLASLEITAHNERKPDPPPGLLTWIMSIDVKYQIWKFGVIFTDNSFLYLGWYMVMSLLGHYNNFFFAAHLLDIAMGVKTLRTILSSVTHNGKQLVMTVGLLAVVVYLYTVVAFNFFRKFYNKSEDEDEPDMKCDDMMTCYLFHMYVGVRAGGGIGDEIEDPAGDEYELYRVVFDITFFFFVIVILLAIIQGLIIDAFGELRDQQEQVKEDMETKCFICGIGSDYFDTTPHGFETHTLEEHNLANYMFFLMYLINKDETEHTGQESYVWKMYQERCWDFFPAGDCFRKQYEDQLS
T1 sequence (P26883 2-108 partner limits assumed): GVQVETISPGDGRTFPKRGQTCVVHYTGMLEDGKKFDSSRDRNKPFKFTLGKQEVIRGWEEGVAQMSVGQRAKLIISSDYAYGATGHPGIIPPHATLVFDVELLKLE
Description: Analysis of Ryanodine Receptor Complex: 10 mg muscle samples were isotonically lysed. […] The samples were incubated with protein A Sepharose beads (Amersham Pharmacia) at 4° C. for 1 h, after which the beads were washed three times with buffer. Proteins were separated on SDS-PAGE gels (4-20% gradient) and transferred onto nitrocellulose membranes overnight (SemiDry transfer blot, Bio-Rad). After incubation with blocking solution (LICOR Biosciences, Lincoln Nebr.) to prevent non-specific antibody binding and a wash in Tris-buffered saline with 0.1% Tween-20, membranes were incubated for 1-2 h at room temperature with primary antibodies anti-calstabin (1:2500 in blocking buffer), anti-RyR (5029, 1:5,000), or anti-phospho-RyR2-pSer2809 (1:5000), which detects PKA-phosphorylated mouse RyR1-pSer2844 and RyR2-pSer2808, anti-PDE4D3 (1:1000). After three washes, membranes were incubated with infrared labeled secondary antibodies (1:10,000 dilution, LICOR Biosystems). Band densities were quantified using the Odyssey Infrared Imaging System (LICOR Biosciences).

RyR [1] = test: RyR immunoprecipitation from whole brain microsomes of exercised mice; format: in vivo, mouse; conditions: 21 days
Description: (§1) Tissue lysates were prepared by homogenizing the tissue (e.g., brain, cardiac, muscle) with Tissuemiser in 0.7 ml lysis buffer (pH 7.4, 10 mM HEPES, 1 mM EDTA, 20 mM NaF, 2 mM Na3 VO4, 320 mM sucrose, and protease inhibitors) and centrifuged for 15 min at 4,000×g at 4° C. The supernatant was then centrifuged for 15 min at 10,000×g at 4° C. For brain homogenates, the supernatant was centrifuged at 50,000×g at 4° C. for 30 minutes, and the pellet (microsomes) was resuspended in homogenization buffer which was supplemented with 0.9% NaCl. For brain tissue, the resuspended pellet was used for immunoprecipitation of RyR. For cardiac and muscle tissue homogenates, the supernatant of the 10,000×g spin was used for immunoprecipitation of the RyR. Protein concentrations were measured by Bradford protein assay. The sample was frozen at −80° C. until use.
100 μg of microsomes were brought to a volume of 500 μl with modified RIP A buffer (50 mM Tris-HCl (PH 7.4), 0.9% NaCl, 5.0 mM NaF, 1.0 mM Na3VO4, 0.5% TritonX100, and protease inhibitors). […] The sample was incubated with 40 μl of Protein A Sepharose beads and rotated for 1 hr at 4° C. […]
Ryanodine receptor (types 1 and 2) was immunoprecipitated from whole brain microsomes. Immunoprecipitates were separated by 4-20% PAGE and analyzed for total RyR, PKA phosphorylated RyR, and calstabin.

RyR [2] = test: Calstabin binding to RyR in brain after isoproterenol infusion (RyR immunoprecipitation, western blot)
Description: as §1
100 μg of microsomes were brought to a volume of 500 μl with modified RIP A buffer (50 mM Tris-HCl (PH 7.4), 0.9% NaCl, 5.0 mM NaF, 1.0 mM Na3VO4, 0.5% TritonX100, and protease inhibitors). […]
Experiments were performed to determine whether the compounds described herein cross the blood brain barrier and enhance binding of cal stab in to ryanodine receptors in the brain. […] RyR was immunoprecipitated using an antibody to RyR, and the presence of calstabin in the immunoprecipitates was detected using an antibody to calstabin.

Wild-type mice = test: Chronic heart failure after myocardial infarction (LAD ligation) in wild-type mice; format: in vivo, mouse; conditions: plasma concentration 200 nM, vs placebo
Description: Wild-type mice are subjected to permanent ligation of the left anterior descending coronary artery resulting in myocardial infarction. Seven days following myocardial infartion, mice are treated with S36 (plasma concentration 200 nM) or placebo.

L-type Ca2+ channels = target: T2, L-type Ca2+ channels (Mus musculus, UniProt Q01815); test: L-type Ca2+ channel current, whole-cell patch clamp in isolated mouse cardiomyocytes; format: cell-based; conditions: Ba2+ as charge carrier
T2 construct: currents through L-type Ca^2+ channels in isolated mouse cardiomyocytes are recorded; endogenous in cells; host or cells: isolated mouse cardiomyocytes
Description: The final pellets are pooled and resuspended in imidazole buffer (final concentration≈10 μg/μl). […] Immunoblots are developed using an anti-FKBP antibody (1:3,000 dilution). The amount of rebinding is quantified using densitometry of Western blots and is compared to the amount of FKBP associated with RyR in non-phosphorylated SR. […] K2ATP, 5; HEPES, 10; aspartic acid, 50; pH 7.4 (CsOH). […] Drugs are applied by a local solution changer and reach the cell membrane within 1 s.

| Structure (SMILES) | EDL isometric force production (EDL muscle) | peak tetanic calcium transients during fatigue protocol (FDB muscle fibers) | Calstabin1 depletion from RyR1 (RyR1) | binding of calstabin to RyR in whole brain microsomes (RyR [1]) | blood brain barrier penetration (RyR [2]; mice) | in vivo binding of calstabin to RyR (RyR [2]; mid-brain and cerebellum, after isoproterenol infusion for 5 days) | Heart weight to body weight (HW/BW) ratio (Wild-type mice) | pressure-volume loop quantification (dP/dt) (Wild-type mice) | block of L-type Ca2+ channel current (ICa,L) (L-type Ca2+ channels) |
| --- | --- | --- | --- | --- | --- | --- | --- | --- | --- |
| COc1ccc2c(c1)CN(C)CCS2 [S107] | increased force production | delayed decline in peak tetanic calcium transients | nearly entirely reversed | restores the binding of calstabin to RyR | crosses the blood brain barrier | restores in vivo binding of calstabin to RyR | – | – | – |
| COc1ccc2c(c1)CN(C(=O)C(=O)O)CCS2 [S36] | – | – | – | – | – | – | reverse remodeling | improved cardiac contractility | does not block |

— patent US8710045B2, “Agents for preventing and treating disorders involving modulation of the ryanodine receptors” (The Trustees of Columbia University in the City of New York, priority 2004, dated 2014)
